The values below are quoted from earlier work in US5424332A, “Pharmaceutical composition and process for the production thereof” (priority 1993, dated 1995).

For series [1] the following is noted: high doses; parenteral, dermal and, in particular, peroral administration.
The subject of the next series is Ehrlich ascites tumor. The settings on record: mice.
The test system of series [2] is mitomycin C toxic effects.

For the compound `N#C/C=C/C#N` [fumaronitrile], in series [1], the “adverse effects and toxicity” value is “unacceptable rate of adverse effects and high toxicity”.

For the compound `O=C(O)/C(O)=C(\O)C(=O)O` [dihydroxy fumaric acid], the “adverse effects and toxicity” value in series [1] is “unacceptable rate of adverse effects and high toxicity”.

As for `NC(=O)/C=C/C(N)=O` [fumaramide], the “adverse effects and toxicity” value in series [1] is “unacceptable rate of adverse effects and high toxicity”.

For `O=C(O)/C=C/C(=O)O` [fumaric acid], in the series on Ehrlich ascites tumor, the “growth of the Ehrlich ascites tumor” value was “impedes the growth”. Also, in series [2], the “toxic effects of mitomycin C” value is “reduces the toxic effects”. Besides, the anti-psoriatic action result in the series on psoriasis is “anti-psoriatic”. Besides, in series [1], the “adverse effects and toxicity” value was “unacceptable rate of adverse effects and high toxicity”.
